Columns and labels:
Human whole blood = test: IRAK4 Whole Blood Assay (IL-6 levels after stimulation with TLR2 agonist lipoteichoic acid); type: cell-based; details: 10 μg/mL lipoteichoic acid, 5 hours
Method: Human whole blood containing the anti-coagulant ACD-A was plated in 384-well plate (25 μL/well) and incubated with compounds for 60 minutes at 37° C. in a 5% CO2 incubator. The blood was stimulated with a TLR2 agonist, 10 μg/mL final concentration of lipoteichoic acid (Invivogen, San Diego, CA) in 25 μL RPMI (Gibco) for 5 hours in a 5% CO2 incubator. At the end of the incubation, plates were centrifuged at 2300 rpm for 5 minutes. Supernatants were harvested and analyzed for IL-6 levels by Flow Cytometry beads assay (BD Biosciences, San Jose, CA).

IRAK4 = IRAK4 (Homo sapiens (Human), UniProt Q9NWZ3); test: IRAK4 Inhibition Assay; type: biochemical; details: ATP 500 μM; IRAK4 0.6 nM; 60 min room temperature; Caliper LABCHIP 3000
Sequence of IRAK4 (Q9NWZ3 whole entry, species assumed): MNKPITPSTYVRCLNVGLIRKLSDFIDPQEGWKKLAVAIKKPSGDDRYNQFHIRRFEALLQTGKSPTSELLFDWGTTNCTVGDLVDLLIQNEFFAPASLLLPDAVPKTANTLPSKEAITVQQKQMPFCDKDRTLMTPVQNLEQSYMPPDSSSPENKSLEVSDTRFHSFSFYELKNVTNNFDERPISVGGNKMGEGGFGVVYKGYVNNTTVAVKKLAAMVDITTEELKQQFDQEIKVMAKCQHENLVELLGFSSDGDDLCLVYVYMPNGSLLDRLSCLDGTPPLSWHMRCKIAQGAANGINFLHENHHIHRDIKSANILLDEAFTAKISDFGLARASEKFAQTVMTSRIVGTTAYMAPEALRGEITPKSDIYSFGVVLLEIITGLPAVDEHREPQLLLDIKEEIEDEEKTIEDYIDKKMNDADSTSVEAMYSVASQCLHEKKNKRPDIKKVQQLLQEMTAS

SMILES	EC50 (Human whole blood) [nM]	IC50 (IRAK4) [nM]
CC(C)Nc1c(C(=O)NC[C@@H](F)C(C)(C)O)nnc2ccc(-c3cn[nH]c3)cc12 [Example 158, (R)—N-(2-fluoro-3-hydroxy-3-methylbutyl)-4-(isopropylamino)-6-(1H-pyrazol-4-yl) cinnoline-3-carboxamide]	802	1.6
CC(=O)N1CCC(n2cc(-c3cnc4ccc(-c5cn[nH]c5)cc4c3NC(C)C)nn2)CC1 [Example 135, 1-(4-(4-(4-(isopropylamino)-6-(1H-pyrazol-4-yl)quinolin-3-yl)-1H-1,2,3-triazol-1-yl)piperidin-1-yl)ethan-1-one]	603	3.1
CC(C)Nc1c(C(=O)NCCC2CC2)cnc2ccc(-c3cn[nH]c3)nc12 [Example 149, N-(2-cyclopropylethyl)-4-(isopropylamino)-6-(1H-pyrazol-4-yl)-1,5-naphthyridine-3-carboxamide]	175	2.7
O=C(NCCCc1ccncc1)c1cnc2ccc(-c3cn[nH]c3)cc2c1NC1CC1 [Example 118, 4-(cyclopropylamino)-6-(1H-pyrazol-4-yl)-N-(3-(pyridin-4-yl)propyl)quinoline-3-carboxamide]	3150	10.8
CC(O)CCNC(=O)c1cnc2ccc(-c3cn[nH]c3)nc2c1NC(C)C (stereo not shown) [Example 140, N-(3-hydroxybutyl)-4-(isopropylamino)-6-(1H-pyrazol-4-yl)-1,5-naphthyridine-3-carboxamide]	137	4.8
CC(C)Nc1c(C(=O)NCCN2CCS(=O)(=O)CC2)nnc2ccc(-c3cn[nH]c3)cc12 [Example 160, N-(2-(1,1-dioxidothiomorpholino)ethyl)-4-(isopropylamino)-6-(1H-pyrazol-4-yl)cinnoline-3-carboxamide]	2090	2.7
CC(C)Nc1c(C(=O)NCCC(C)(C)O)cnc2ccc(-c3cn[nH]c3)nc12 [Example 138, N-(3-hydroxy-3-methylbutyl)-4-(isopropylamino)-6-(1H-pyrazol-4-yl)-1,5-naphthyridine-3-carboxamide]	58	2.7
CC1(Nc2c(C(=O)NC[C@@H](F)C(C)(C)O)cnc3ccc(-c4cn[nH]c4)cc23)CC1 [Example 121, (R)—N-(2-fluoro-3-hydroxy-3-methylbutyl)-4-((1-methylcyclopropyl)amino)-6-(1H-pyrazol-4-yl)quinoline-3-carboxamide]	686	2.7
CC(=O)N1CC(n2cc(-c3cnc4ccc(-c5cn[nH]c5)cc4c3NC(C)C)nn2)C1 [Example 132, 1-(3-(4-(4-(isopropylamino)-6-(1H-pyrazol-4-yl)quinolin-3-yl)-1H-1,2,3-triazol-1-yl)azetidin-1-yl)ethan-1-one]	799	2.9
O=C(NCCN1CCS(=O)(=O)CC1)c1cnc2ccc(-c3cn[nH]c3)cc2c1NC1CC1 [Example 117, 4-(cyclopropylamino)-N-(2-(1,1-dioxidothiomorpholino)ethyl)-6-(1H-pyrazol-4-yl)quinoline-3-carboxamide]	5190	4.9
CC(C)Nc1c(-c2cn(CC3CC3)nn2)cnc2ccc(-c3cn[nH]c3)cc12 [Example 130, 3-(1-(cyclopropylmethyl)-1H-1,2,3-triazol-4-yl)-N-isopropyl-6-(1H-pyrazol-4-yl) quinolin-4-amine]	1890	6
CC(C)CCNC(=O)c1cnc2ccc(-c3cn[nH]c3)nc2c1NC(C)C [Example 139, N-isopentyl-4-(isopropylamino)-6-(1H-pyrazol-4-yl)-1,5-naphthyridine-3-carboxamide]	272	2.7
CC(C)Nc1c(C(=O)NC[C@@H](F)C(C)(C)O)cnc2ccc(-c3cncs3)cc12 [Example 7, (R)—N-(2-fluoro-3-hydroxy-3-methylbutyl)-4-(isopropylamino)-6-(thiazol-5-yl)quinoline-3-carboxamide]	5710	8.2
CC(C)Nc1c(C(=O)NCCC(C)(C)N)cnc2ccc(-c3cn[nH]c3)nc12 [Example 150, N-(3-amino-3-methylbutyl)-4-(isopropylamino)-6-(1H-pyrazol-4-yl)-1,5-naphthyridine-3-carboxamide]	153	5.4
CC(=O)N[C@H]1CC[C@H](NC(=O)c2cnc3ccc(-c4cncs4)nc3c2NC(C)C)CC1 [Example 156, N-((1r,4r)-4-acetamidocyclohexyl)-4-(isopropylamino)-6-(thiazol-5-yl)-1,5-naphthyridine-3-carboxamide]	662	4.3

Other lines, results leading:

EC50 (Human whole blood) [nM]	IC50 (IRAK4) [nM]	SMILES
447	4.1	CC(C)Nc1c(C(=O)N[C@H]2CC[C@H](n3ccnn3)CC2)cnc2ccc(-c3cn[nH]c3)cc12 [Example 101, N-((1r,4r)-4-(1H-1,2,3-triazol-1-yl)cyclohexyl)-4-(isopropylamino)-6-(1H-pyrazol-4-yl)quinoline-3-carboxamide]
868	9.1	COC(=O)N[C@H]1C[C@H](NC(=O)c2cnc3ccc(-c4cn[nH]c4)cc3c2NC(C)C)C1 [Example 47, methyl ((1r,3r)-3-(4-(isopropylamino)-6-(1H-pyrazol-4-yl)quinoline-3-carboxamido)cyclobutyl)carbamate]
2730	4.3	CC(C)Nc1c(C(=O)NCCC2CCS(=O)(=O)CC2)cnc2ccc(-c3cn[nH]c3)cc12 [Example 112, N-(2-(1,1-dioxidotetrahydro-2H-thiopyran-4-yl)ethyl)-4-(isopropylamino)-6-(1H-pyrazol-4-yl) quinoline-3-carboxamide]
1380	7.2	CC(C)Nc1c(C(=O)N[C@H]2C[C@H](O)C2)cnc2ccc(-c3cn[nH]c3)nc12 [Example 143, N-((1r,3r)-3-hydroxycyclobutyl)-4-(isopropylamino)-6-(1H-pyrazol-4-yl)-1,5-naphthyridine-3-carboxamide]
2080	9.7	CC(C)Nc1c(C(=O)NCCC2CCNC2)cnc2ccc(-c3cn[nH]c3)cc12 (stereo not shown) [Example 97, 4-(isopropylamino)-6-(1H-pyrazol-4-yl)-N-(2-(pyrrolidin-3-yl)ethyl)quinoline-3-carboxamide]
759	13.7	CC(O)CCNC(=O)c1cnc2ccc(-c3cn[nH]c3)cc2c1NC(C)C (stereo not shown) [Example 36, N-(3-hydroxybutyl)-4-(isopropylamino)-6-(1H-pyrazol-4-yl)quinoline-3-carboxamide]
1670	9.5	CC(C)Nc1c(C(=O)N[C@H]2CC[C@H](O)CC2)cnc2ccc(-c3cn[nH]c3)cc12 [Example 11, N-((1r,4r)-4-hydroxycyclohexyl)-4-(isopropylamino)-6-(1H-pyrazol-4-yl)quinoline-3-carboxamide]
501	2.6	CC(C)Nc1c(C(=O)NC[C@@H](F)C(C)(C)O)cnc2ccc(-c3cn[nH]c3)cc12 [Example 1, (R)—N-(2-fluoro-3-hydroxy-3-methylbutyl)-4-(isopropylamino)-6-(1H-pyrazol-4-yl) quinoline-3-carboxamide]
607	4.2	CC(C)Nc1c(C(=O)NCCc2cccnc2)cnc2ccc(-c3cn[nH]c3)cc12 [Example 98, 4-(isopropylamino)-6-(1H-pyrazol-4-yl)-N-(2-(pyridin-3-yl)ethyl)quinoline-3-carboxamide]
396	2.5	CC(C)Nc1c(C(=O)NCCC2(O)CC(F)(F)C2)cnc2ccc(-c3cn[nH]c3)cc12 [Example 42, N-(2-(3,3-difluoro-1-hydroxycyclobutyl)ethyl)-4-(isopropylamino)-6-(1H-pyrazol-4-yl)quinoline-3-carboxamide]
699	4.5	CC(C)Nc1c(C(=O)NCCC2CC2)cnc2ccc(-c3cn[nH]c3)cc12 [Example 51, N-(2-cyclopropylethyl)-4-(isopropylamino)-6-(1H-pyrazol-4-yl)quinoline-3-carboxamide]
1700	7.2	CC(C)Nc1c(C(=O)N[C@H]2CC[C@H](N)CC2)cnc2ccc(-c3cn[nH]c3)cc12 [Example 23, N-((1r,4r)-4-aminocyclohexyl)-4-(isopropylamino)-6-(1H-pyrazol-4-yl)quinoline-3-carboxamide]
1360	16.8	CC(C)Nc1c(C(=O)NC2CCN(Cc3ccncc3)CC2)cnc2ccc(-c3cn[nH]c3)cc12 [Example 78, 4-(isopropylamino)-6-(1H-pyrazol-4-yl)-N-(1-(pyridin-4-ylmethyl)piperidin-4-yl)quinoline-3-carboxamide]
868	14.1	CC(C)Nc1c(C(=O)NCc2cnco2)cnc2ccc(-c3cn[nH]c3)cc12 [Example 14, 4-(isopropylamino)-N-(oxazol-5-ylmethyl)-6-(1H-pyrazol-4-yl)quinoline-3-carboxamide]
455	9	CC(C)Nc1c(C(=O)NC2CCN(C(=O)N3CCOCC3)CC2)cnc2ccc(-c3cn[nH]c3)cc12 [Example 82, 4-(isopropylamino)-N-(1-(morpholine-4-carbonyl)piperidin-4-yl)-6-(1H-pyrazol-4-yl) quinoline-3-carboxamide]
3770	21	CC(C)Nc1c(C(=O)NCC2CCS(=O)(=O)CC2)cnc2ccc(-c3cn[nH]c3)cc12 [Example 107, N-((1,1-dioxidotetrahydro-2H-thiopyran-4-yl)methyl)-4-(isopropylamino)-6-(1H-pyrazol-4-yl)quinoline-3-carboxamide]
1320	13	CCOC(=O)N1CCC(NC(=O)c2cnc3ccc(-c4cn[nH]c4)cc3c2NC(C)C)CC1 [Example 80, ethyl 4-(4-(isopropylamino)-6-(1H-pyrazol-4-yl)quinoline-3-carboxamido)piperidine-1-carboxylate]

From patent publication US12492186B2, “Bicyclic heterocyclic compounds useful as IRAK4 inhibitors” (BRISTOL-MYERS SQUIBB COMPANY, priority 2019, dated 2025)
